# Measurements reported in PubChem BioAssay AID1845206 (Molecular Pharmacology Branch, DTP, NCI, 2023).
# The source made the active and inactive calls. The calls were made as follows: active = viability on the fitted dose curve at most 10% of control; inactive = the rest.
# Test system: NCI-H1618 multicellular tumor spheroid viability
# Test: Anticancer human tumor NCI-H1618 cell line growth inhibition;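 also: spheroids exposed to agents for 7 days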
# Conditions: for IC50: curve of first compound; for viability, T/C: stronger effect = lower value
# Outline: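 Complex spheroids of malignant cells with endothelial cells and mesenchymal stem cells; agents alone or combined, from near clinical Cmax (or 10 microM if unknown) down in half-log steps, 0.25% DMSO final.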
# [1] = second compound 0.003 µM, first compound 0.00949 µM
# [2] = second compound 0.003 µM, first compound 0.03 µM
# [3] = second compound 0.003 µM, first compound 0.0949 µM
# [4] = second compound 0.003 µM, first compound 0.3 µM
# [5] = second compound 0.003 µM, first compound 0.949 µM
# [6] = second compound 0.003 µM, first compound 3 µM
# [7] = second compound 0.00949 µM, first compound 0.00949 µM
# [8] = second compound 0.00949 µM, first compound 0.03 µM
# [9] = second compound 0.00949 µM, first compound 0.0949 µM
# [10] = second compound 0.00949 µM, first compound 0.3 µM
# [11] = second compound 0.00949 µM, first compound 0.949 µM
# [12] = second compound 0.00949 µM, first compound 3 µM
# [13] = second compound 0.03 µM, first compound 0.00949 µM
# [14] = second compound 0.03 µM, first compound 0.03 µM
# [15] = second compound 0.03 µM, first compound 0.0949 µM
# [16] = second compound 0.03 µM, first compound 0.3 µM
# [17] = second compound 0.03 µM, first compound 0.949 µM
# [18] = second compound 0.03 µM, first compound 3 µM
# [19] = second compound 0.0949 µM, first compound 0.00949 µM
# [20] = second compound 0.0949 µM, first compound 0.03 µM
# [21] = second compound 0.0949 µM, first compound 0.0949 µM
# [22] = second compound 0.0949 µM, first compound 0.3 µM
# [23] = second compound 0.0949 µM, first compound 0.949 µM
# [24] = second compound 0.0949 µM, first compound 3 µM
# [25] = second compound 0.3 µM, first compound 0.00949 µM
# [26] = second compound 0.3 µM, first compound 0.03 µM
# [27] = second compound 0.3 µM, first compound 0.0949 µM
# [28] = second compound 0.3 µM, first compound 0.3 µM
# [29] = second compound 0.3 µM, first compound 0.949 µM
# [30] = second compound 0.3 µM, first compound 3 µM
smiles,measurement,setting,value
Cc1sc2c(c1C)C(c1ccc(Cl)cc1)=NC(CC(=O)Nc1ccc(O)cc1)c1nnc(C)n1-2 (stereo not given) + COc1cc2c(cc1O)CCNC21CSC2c3c(OC(C)=O)c(C)c4c(c3C(COC1=O)N1C(O)C3Cc5cc(C)c(OC)c(O)c5C(C21)N3C)OCO4,IC50,second compound 30 pM,275 nM
same,IC50,second compound 94.9 pM,157 nM
same,IC50,second compound 0.0003 µM,< 9.49 nM
same,IC50,second compound 0.000949 µM,< 9.49 nM
same,IC50,second compound 0.003 µM,< 9.49 nM
same,"viability, T/C","second compound 30 pM, first compound 0.00949 µM",86.2%
same,"viability, T/C","second compound 30 pM, first compound 0.03 µM",116%
same,"viability, T/C","second compound 30 pM, first compound 0.0949 µM",93.5%
same,"viability, T/C","second compound 30 pM, first compound 0.3 µM",45.9%
same,"viability, T/C","second compound 30 pM, first compound 0.949 µM",11.1%
same,"viability, T/C","second compound 30 pM, first compound 3 µM",2.15%
same,"viability, T/C","second compound 94.9 pM, first compound 0.00949 µM",72.2%
same,"viability, T/C","second compound 94.9 pM, first compound 0.03 µM",84.4%
same,"viability, T/C","second compound 94.9 pM, first compound 0.0949 µM",63.9%
same,"viability, T/C","second compound 94.9 pM, first compound 0.3 µM",29.9%
same,"viability, T/C","second compound 94.9 pM, first compound 0.949 µM",3.78%
same,"viability, T/C","second compound 94.9 pM, first compound 3 µM",1.08%
same,"viability, T/C","second compound 0.0003 µM, first compound 0.00949 µM",22.7%
same,"viability, T/C","second compound 0.0003 µM, first compound 0.03 µM",2.53%
same,"viability, T/C","second compound 0.0003 µM, first compound 0.0949 µM",10.2%
same,"viability, T/C","second compound 0.0003 µM, first compound 0.3 µM",11.7%
same,"viability, T/C","second compound 0.0003 µM, first compound 0.949 µM",0.74%
same,"viability, T/C","second compound 0.0003 µM, first compound 3 µM",0.78%
same,"viability, T/C","second compound 0.000949 µM, first compound 0.00949 µM",4.7%
same,"viability, T/C","second compound 0.000949 µM, first compound 0.03 µM",2.6%
same,"viability, T/C","second compound 0.000949 µM, first compound 0.0949 µM",1.78%
same,"viability, T/C","second compound 0.000949 µM, first compound 0.3 µM",0.74%
same,"viability, T/C","second compound 0.000949 µM, first compound 0.949 µM",0.65%
same,"viability, T/C","second compound 0.000949 µM, first compound 3 µM",0.37%
same,"viability, T/C",[1],2.16%
same,"viability, T/C",[2],2.42%
same,"viability, T/C",[3],0.82%
same,"viability, T/C",[4],0.41%
same,"viability, T/C",[5],0.26%
same,"viability, T/C",[6],0.46%
CNCc1ccc(-c2cc(-c3nc(-c4ccc(S(=O)(=O)C(C)C)cc4)cnc3N)on2)cc1 + CC[C@@]1(O)C(=O)OCc2c1cc1n(c2=O)Cc2cc3c(CN(C)C)c(O)ccc3nc2-1,IC50,second compound 0.003 µM,187 nM
same,IC50,second compound 0.00949 µM,< 9.49 nM
same,IC50,second compound 0.03 µM,< 9.49 nM
same,IC50,second compound 0.0949 µM,< 9.49 nM
same,IC50,second compound 0.3 µM,< 9.49 nM
same,"viability, T/C",[1],95.1%
same,"viability, T/C",[2],94%
same,"viability, T/C",[3],61.7%
same,"viability, T/C",[4],44.8%
same,"viability, T/C",[5],1.59%
same,"viability, T/C",[6],0.23%
same,"viability, T/C",[7],20.6%
same,"viability, T/C",[8],77.9%
same,"viability, T/C",[9],34.5%
same,"viability, T/C",[10],1.73%
same,"viability, T/C",[11],0.75%
same,"viability, T/C",[12],0.62%
same,"viability, T/C",[13],1.33%
same,"viability, T/C",[14],15.5%
same,"viability, T/C",[15],1.54%
same,"viability, T/C",[16],1.41%
same,"viability, T/C",[17],0.72%
same,"viability, T/C",[18],0.23%
same,"viability, T/C",[19],1.38%
same,"viability, T/C",[20],14%
same,"viability, T/C",[21],1.35%
same,"viability, T/C",[22],1.36%
same,"viability, T/C",[23],0.81%
same,"viability, T/C",[24],0.45%
same,"viability, T/C",[25],1.25%
same,"viability, T/C",[26],1.26%
same,"viability, T/C",[27],1.42%
same,"viability, T/C",[28],1.51%
same,"viability, T/C",[29],17.5%
same,"viability, T/C",[30],0.43%
COc1ccc([C@@H](O)c2cc(-c3ncnc4cc(N5CCOCC5)ccc34)c(F)cc2Cl)nn1 + Cn1nnc2c(C(N)=O)ncn2c1=O,IC50,second compound 1 µM,5420 nM
same,IC50,second compound 3.16 µM,< 31.6 nM
same,IC50,second compound 10 µM,< 31.6 nM
same,IC50,second compound 31.6 µM,< 31.6 nM
same,IC50,second compound 100 µM,< 31.6 nM
same,"viability, T/C","second compound 1 µM, first compound 0.0316 µM",86.8%
same,"viability, T/C","second compound 1 µM, first compound 0.1 µM",92%
same,"viability, T/C","second compound 1 µM, first compound 0.316 µM",95.2%
same,outcome,"second compound 1 µM, first compound 1 µM",inactive
same,"viability, T/C","second compound 1 µM, first compound 3.16 µM",72.6%
same,"viability, T/C","second compound 1 µM, first compound 10 µM",24.2%
same,"viability, T/C","second compound 3.16 µM, first compound 0.0316 µM",26.6%
same,"viability, T/C","second compound 3.16 µM, first compound 0.1 µM",27.2%
same,"viability, T/C","second compound 3.16 µM, first compound 0.316 µM",17.2%
same,"viability, T/C","second compound 3.16 µM, first compound 1 µM",22.2%
same,"viability, T/C","second compound 3.16 µM, first compound 3.16 µM",5.58%
same,"viability, T/C","second compound 3.16 µM, first compound 10 µM",6.14%
same,"viability, T/C","second compound 10 µM, first compound 0.0316 µM",3.36%
same,"viability, T/C","second compound 10 µM, first compound 0.1 µM",5.1%
same,"viability, T/C","second compound 10 µM, first compound 0.316 µM",5.03%
same,"viability, T/C","second compound 10 µM, first compound 1 µM",5.47%
same,"viability, T/C","second compound 10 µM, first compound 3.16 µM",5.06%
same,"viability, T/C","second compound 10 µM, first compound 10 µM",5.28%
same,"viability, T/C","second compound 31.6 µM, first compound 0.0316 µM",8.19%
same,"viability, T/C","second compound 31.6 µM, first compound 0.1 µM",12.4%
same,"viability, T/C","second compound 31.6 µM, first compound 0.316 µM",14.6%
same,"viability, T/C","second compound 31.6 µM, first compound 1 µM",17.1%
same,"viability, T/C","second compound 31.6 µM, first compound 3.16 µM",5.03%
same,"viability, T/C","second compound 31.6 µM, first compound 10 µM",5.45%
same,"viability, T/C","second compound 100 µM, first compound 0.0316 µM",20.6%
same,"viability, T/C","second compound 100 µM, first compound 0.1 µM",34.8%
same,"viability, T/C","second compound 100 µM, first compound 0.316 µM",63.5%
same,"viability, T/C","second compound 100 µM, first compound 1 µM",35.5%
same,"viability, T/C","second compound 100 µM, first compound 3.16 µM",20.1%
same,"viability, T/C","second compound 100 µM, first compound 10 µM",12.2%
Cn1ncnc1[C@H]1c2n[nH]c(=O)c3cc(F)cc(c23)N[C@@H]1c1ccc(F)cc1 + CC[C@@]1(O)C(=O)OCc2c1cc1n(c2=O)Cc2cc3c(CN(C)C)c(O)ccc3nc2-1,IC50,second compound 0.003 µM,< 9.49 nM
same,IC50,second compound 0.00949 µM,< 9.49 nM
same,IC50,second compound 0.03 µM,< 9.49 nM
same,IC50,second compound 0.0949 µM,< 9.49 nM
same,IC50,second compound 0.3 µM,< 9.49 nM
same,"viability, T/C",[1],27.3%
same,"viability, T/C",[2],6.33%
same,"viability, T/C",[3],1.47%
same,"viability, T/C",[4],1.41%
same,"viability, T/C",[5],1.48%
same,"viability, T/C",[6],2.21%
same,"viability, T/C",[7],1.59%
same,"viability, T/C",[8],2.38%
same,"viability, T/C",[9],1.8%
same,"viability, T/C",[10],1.98%
same,"viability, T/C",[11],3.83%
same,"viability, T/C",[12],1.52%
same,"viability, T/C",[13],1.39%
same,"viability, T/C",[14],3.65%
same,"viability, T/C",[15],1.38%
same,"viability, T/C",[16],1.56%
same,"viability, T/C",[17],1.83%
same,"viability, T/C",[18],1.87%
same,"viability, T/C",[19],1.47%
same,"viability, T/C",[20],1.59%
same,"viability, T/C",[21],1.43%
same,"viability, T/C",[22],1.39%
same,"viability, T/C",[23],1.38%
same,"viability, T/C",[24],1.57%
same,"viability, T/C",[25],1.23%
same,"viability, T/C",[26],1.22%
same,"viability, T/C",[27],1.27%
same,"viability, T/C",[28],1.22%
same,"viability, T/C",[29],1.24%
same,"viability, T/C",[30],1.3%
